In the SangsterLogP compilation:

Assay: method code SF, from DOI: 10.1016/0045-6535(88)90210-x

| SMILES | logP |
| --- | --- |
| Nc1ccc([N+](=O)[O-])cc1[N+](=O)[O-] | 1.9 |
| Cc1ccc(N)c(C)c1 | 2.13 |
| CC(O)CO (stereo not drawn) | -0.99 |
| Cc1ccc(N)cc1Cl | 2.4 |
| Cc1ccc(O)c(N)c1 | 1.11 |
| NC(=O)Nc1cccc(O)c1 | 0.36 |
| CCc1ccccc1N | 2.04 |
| CC(C)(C)c1cc(O)cc(C(C)(C)C)c1 | 4.64 |
| Oc1cc(Cl)c(Cl)c(Cl)c1Cl | 4.37 |
| OCCCl | 0.03 |
| OCC(Br)CBr (stereo not drawn) | 0.9 |
| Oc1c(I)cc(I)cc1I | 4.5 |
| COc1cc(OC)c(Cl)cc1N | 1.45 |
